{"source": "paper PMC7904233", "about": "(Journal of medicinal chemistry, 2020)", "key": {"[1]": {"tested_on": "pEBOV Zaire (Mayinga variant)", "test": "microbe, parasite or virus in culture", "type": "cell-based, Zaire ebolavirus", "settings": "for IC50: read-out: IC50 (μM) pEBOV"}, "pAIV-H5N1": {"tested_on": "pAIV-H5N1", "type": "cell-based, H5N1 avian influenza virus"}, "pMLAV": {"tested_on": "pMLAV", "type": "cell-based, Měnglà virus"}, "pRESTV": {"tested_on": "pRESTV", "type": "cell-based, ebolavirus Reston"}, "pVSV": {"tested_on": "pVSV", "type": "cell-based, vesicular stomatitis virus"}, "pTFV": {"tested_on": "pTFV", "type": "cell-based, ebolavirus Tai Forest"}, "ERα": {"tested_on": "ERα", "type": "cell-based, human"}, "ER": {"tested_on": "ER", "settings": "cited from earlier work; for Kd: read-out: Kd for ER"}, "pMARV (Musoke variant)": {"tested_on": "pMARV (Musoke variant)", "test": "microbe, parasite or virus in culture", "type": "cell-based, Marburg virus", "settings": "read-out: IC50 (μM) pMARV"}, "[2]": {"tested_on": "infectious EBOV Zaire (Kikwit variant)", "type": "cell-based, Zaire ebolavirus"}, "[3]": {"tested_on": "infectious MARV (Angola variant)", "type": "cell-based, Marburg virus"}, "[4]": {"settings": "Human immunodeficiency virus 1, A549, 48 h"}}, "note": "Read-outs that look alike come from different tables or passages of the source."}
{"compound": "CN(C)CCOc1ccc(/C(=C(/CCCl)c2ccccc2)c2ccccc2)cc1", "note": "[Compound 1, Toremifene]", "values": [{"measurement": "IC50", "setting": "[1]; [4]", "value": "< 0.1", "unit": "µM"}]}
{"compound": "Acolbifene [Compound 10]", "values": [{"measurement": "fold weaker than 1", "setting": "[1]", "value": "more than 20 fold"}, {"measurement": "IC50", "setting": "[1]", "value": "1.5 ± 0.3", "unit": "µM"}]}
{"compound": "CC/C(=C(/c1ccc(NC(=O)C2CCN(C)C2)cc1)c1ccc(OCCN2CCCC2)cc1)c1ccccc1", "note": "(stereo not drawn) [Compound 32, (E)-1-methyl-N-(4-(2-phenyl-1-(4-(2-(pyrrolidin-1-yl)ethoxy)phenyl)but-1-en-1-yl)phenyl)pyrrolidine-3-carboxamide]", "values": [{"measurement": "inhibition of pAIV-H5N1 (in words)", "setting": "pAIV-H5N1", "value": "Neither compounds showed appreciable inhibition"}, {"measurement": "inhibition of viral entry (in words)", "setting": "pMLAV", "value": "improved potency"}, {"measurement": "inhibition of viral entry (in words)", "setting": "pRESTV", "value": "improved potency"}, {"measurement": "inhibition of pVSV (in words)", "setting": "pVSV", "value": "Neither compounds showed appreciable inhibition"}, {"measurement": "inhibition of viral entry (in words)", "setting": "pTFV", "value": "improved potency"}, {"measurement": "antagonist activity at ER (in words)", "setting": "ERα", "value": "no antagonist activity"}]}
{"compound": "CC/C(=C(\\c1ccccc1)c1ccc(OCCN(C)C)cc1)c1ccccc1", "note": "[Compound 5, Tamoxifen]", "values": [{"measurement": "ER affinity", "setting": "ER", "value": 13.8, "unit": "nM"}]}
{"compound": "Cc1c(-c2ccc(O)cc2)nn(-c2ccc(O)cc2)c1-c1ccc(OCCN2CCCCC2)cc1", "note": "[Compound 23, MPP]", "values": [{"measurement": "Kd", "setting": "ER", "value": 1.8, "unit": "nM"}]}
{"compound": "(E)-1-methyl-N-(4-(2-phenyl-1-(4-(2-(pyrrolidin-1-yl)ethoxy)phenyl)but-1-en-1-yl)phenyl)piperidine-4-carboxamide [Compound 30]", "values": [{"measurement": "IC50", "setting": "pMARV (Musoke variant)", "value": "0.54 ± 0.05", "unit": "µM"}, {"measurement": "fold more potent than 1", "setting": "[2]", "value": 10, "unit": "fold"}, {"measurement": "IC50", "setting": "[2]; read-out: IC50 (μM) EBOV", "value": "0.09 ± 0.03", "unit": "µM"}, {"measurement": "fold more potent than 1", "setting": "[3]", "value": 6, "unit": "fold"}, {"measurement": "IC50", "setting": "[3]; read-out: IC50 (μM) MARV", "value": "0.64 ± 0.12", "unit": "µM"}, {"measurement": "inhibition of pAIV-H5N1 (in words)", "setting": "pAIV-H5N1", "value": "Neither compounds showed appreciable inhibition"}, {"measurement": "inhibition of viral entry (in words)", "setting": "pMLAV", "value": "improved potency"}, {"measurement": "inhibition of viral entry (in words)", "setting": "pRESTV", "value": "improved potency"}, {"measurement": "inhibition of pVSV (in words)", "setting": "pVSV", "value": "Neither compounds showed appreciable inhibition"}, {"measurement": "inhibition of viral entry (in words)", "setting": "pTFV", "value": "improved potency"}, {"measurement": "IC50", "setting": "[1]", "value": "0.01 ± 0.005", "unit": "µM"}, {"measurement": "antagonist activity at ER (in words)", "setting": "ERα", "value": "no antagonist activity"}]}
{"compound": "COc1ccc2c(c1)CCC(c1ccccc1)=C2c1ccc(OCCN2CCCC2)cc1", "note": "[Compound 6, Nafoxidine]", "values": [{"measurement": "IC50", "setting": "[1]; [4]", "value": "0.1 ± 0.009", "unit": "µM"}]}
{"compound": "CC/C(=C(/c1ccc(NCCN2CCCC2)cc1)c1ccc(OCCN2CCCC2)cc1)c1ccccc1", "note": "[Compound 28, (E)-4-(2-phenyl-1-(4-(2-(pyrrolidin-1-yl)ethoxy)phenyl)but-1-en-1-yl)-N-(2-(pyrrolidin-1-yl)ethyl)aniline]", "values": [{"measurement": "IC50", "setting": "pMARV (Musoke variant); [4]", "value": "> 12.5", "unit": "µM"}]}
{"compound": "CC/C(=C(/c1ccc(N)cc1)c1ccc(OCCN2CCCC2)cc1)c1ccccc1", "note": "[Compound 27, (E)-4-(2-phenyl-1-(4-(2-(pyrrolidin-1-yl)ethoxy)phenyl)but-1-en-1-yl)aniline]", "values": [{"measurement": "fold weaker than 9", "setting": "[2]", "value": 10, "unit": "fold"}]}
